Several values for one entry are separate records, joined by “and”; a condition that tells them apart may be missing. Equal values may be shown once. Activity calls are given as the source filed them. No cut-off for these calls is given here.
Columns and labels:
Mus musculus [1] = assay: Effect on liver weight in ddY mouse at 10 mg/kg/day, po after 14 to 15 days; assay type: functional
Mus musculus [2] = assay: Effect on liver weight in ddY mouse at 0.1 mg/kg/day, po after 14 to 15 days; assay type: functional
Mus musculus [3] = assay: Reduction of mesenteric fat in ddY mouse at 50 mg/kg/day, po after 14 to 15 days; assay type: functional
Mus musculus [4] = assay: Effect on food intake in ddY mouse at 0.1 mg/kg/day, po after 14 to 15 days; assay type: functional
Mus musculus [5] = assay: Reduction of paranephric fat in ddY mouse at 12.5 mg/kg/day, po after 14 to 15 days; assay type: functional
Mus musculus [6] = assay: Reduction of mesenteric fat in ddY mouse at 10 mg/kg/day, po after 14 to 15 days; assay type: functional
Mus musculus [7] = assay: Reduction of visceral fat in ddY mouse at 50 mg/kg/day, po after 14 to 15 days; assay type: functional
Mus musculus [8] = assay: Reduction of epididymal fat in ddY mouse at 0.1 mg/kg/day, po after 14 to 15 days; assay type: functional
Mus musculus [9] = assay: Reduction of paranephric fat in ddY mouse at 10 mg/kg/day, po after 14 to 15 days; assay type: functional
Mus musculus [10] = assay: Reduction of paranephric fat in ddY mouse at 25 mg/kg/day, po after 14 to 15 days; assay type: functional
Mus musculus [11] = assay: Effect on total plasma cholesterol in ddY mouse at 12.5 mg/kg/day, po after 14 to 15 days; assay type: functional
Mus musculus [12] = assay: Effect on liver weight in ddY mouse at 12.5 mg/kg/day, po after 14 to 15 days; assay type: functional
Mus musculus [13] = assay: Effect on D-glucose level in ddY mouse plasma at 0.1 to 10 mg/kg/day for 15 days; assay type: functional
Mus musculus [14] = assay: Effect on free fatty acid in ddY mouse plasma at 1 mg/kg/day, po after 14 to 15 days; assay type: functional
Mus musculus [15] = assay: Reduction of visceral fat in ddY mouse at 0.1 mg/kg/day, po after 14 to 15 days; assay type: functional
Mus musculus [16] = assay: Effect on liver triglyceride in ddY mouse at 50 mg/kg/day, po after 14 to 15 days; assay type: functional
Mus musculus [17] = assay: Effect on total plasma cholesterol in ddY mouse at 0.1 mg/kg/day, po after 14 to 15 days; assay type: functional
Mus musculus [18] = assay: Effect on food intake in ddY mouse at 50 mg/kg/day, po after 14 to 15 days; assay type: functional
Mus musculus [19] = assay: Effect on liver triglyceride in ddY mouse at 12.5 mg/kg/day, po after 14 to 15 days; assay type: functional
Mus musculus [20] = assay: Reduction of paranephric fat in ddY mouse at 0.1 mg/kg/day, po after 14 to 15 days; assay type: functional
Mus musculus [21] = assay: Effect on free fatty acid in ddY mouse plasma at 0.1 mg/kg/day, po after 14 to 15 days; assay type: functional
Mus musculus [22] = assay: Effect on food intake in ddY mouse at 10 mg/kg/day, po after 14 to 15 days; assay type: functional
Mus musculus [23] = assay: Reduction of mesenteric fat in ddY mouse at 25 mg/kg/day, po after 14 to 15 days; assay type: functional
Mus musculus [24] = assay: Reduction of visceral fat in ddY mouse at 1 mg/kg/day, po after 14 to 15 days; assay type: functional
Mus musculus [25] = assay: Effect on liver weight in ddY mouse at 25 mg/kg/day, po after 14 to 15 days; assay type: functional
Mus musculus [26] = assay: Effect on total plasma cholesterol in ddY mouse at 1 mg/kg/day, po after 14 to 15 days; assay type: functional
Mus musculus [27] = assay: Reduction of epididymal fat in ddY mouse at 12.5 mg/kg/day, po after 14 to 15 days; assay type: functional
Mus musculus [28] = assay: Reduction of mesenteric fat in ddY mouse at 0.1 mg/kg/day, po after 14 to 15 days; assay type: functional
Mus musculus [29] = assay: Effect on free fatty acid in ddY mouse plasma at 50 mg/kg/day, po after 14 to 15 days; assay type: functional
Mus musculus [30] = assay: Effect on food intake in ddY mouse at 25 mg/kg/day, po after 14 to 15 days; assay type: functional
Mus musculus [31] = assay: Effect on total plasma cholesterol in ddY mouse at 50 mg/kg/day, po after 14 to 15 days; assay type: functional
Mus musculus [32] = assay: Reduction of visceral fat in ddY mouse at 25 mg/kg/day, po after 14 to 15 days; assay type: functional
Mus musculus [33] = assay: Reduction of mesenteric fat in ddY mouse at mg/kg/day, po after 14 to 15 days; assay type: functional
Liver = assay: Increase in expression of PPAR alpha mRNA level in liver tissue of orally dosed ddY mouse, after 24 hrs; assay type: functional, organism-based
Mus musculus [34] = assay: Effect on plasma triglyceride in ddY mouse at 50 mg/kg/day, po after 14 to 15 days; assay type: functional
Mus musculus [35] = assay: Effect on food intake in ddY mouse at 1 mg/kg/day, po after 14 to 15 days; assay type: functional
Mus musculus [36] = assay: Reduction of epididymal fat in ddY mouse at 50 mg/kg/day, po after 14 to 15 days; assay type: functional
Mus musculus [37] = assay: Reduction of epididymal fat in ddY mouse at 25 mg/kg/day, po after 14 to 15 days; assay type: functional
Mus musculus [38] = assay: Effect on food intake in ddY mouse at 12.5 mg/kg/day, po after 14 to 15 days; assay type: functional
Mus musculus [39] = assay: Effect on liver weight in ddY mouse at 1 mg/kg/day, po after 14 to 15 days; assay type: functional
Mus musculus [40] = assay: Reduction of epididymal fat in ddY mouse at 1 mg/kg/day, po after 14 to 15 days; assay type: functional
Mus musculus [41] = assay: Reduction of mesenteric fat in ddY mouse at 1 mg/kg/day, po after 14 to 15 days; assay type: functional
Mus musculus [42] = assay: Effect on free fatty acid in ddY mouse plasma at 12.5 mg/kg/day, po after 14 to 15 days; assay type: functional
Mus musculus [43] = assay: Effect on liver triglyceride in ddY mouse at 1 mg/kg/day, po after 14 to 15 days; assay type: functional
Mus musculus [44] = assay: Reduction of visceral fat in ddY mouse at 10 mg/kg/day, po after 14 to 15 days; assay type: functional
Mus musculus [45] = assay: Effect on liver triglyceride in ddY mouse at 0.1 mg/kg/day, po after 14 to 15 days; assay type: functional
Mus musculus [46] = assay: Reduction of visceral fat in ddY mouse at 12.5 mg/kg/day, po after 14 to 15 days; assay type: functional
Mus musculus [47] = assay: Effect on plasma triglyceride in ddY mouse at 12.5 mg/kg/day, po after 14 to 15 days; assay type: functional
Mus musculus [48] = assay: Effect on plasma triglyceride in ddY mouse at 1 mg/kg/day, po after 14 to 15 days; assay type: functional
Mus musculus [49] = assay: Effect on plasma triglyceride in ddY mouse at 0.1 mg/kg/day, po after 14 to 15 days; assay type: functional
Mus musculus [50] = assay: Reduction of epididymal fat in ddY mouse at 10 mg/kg/day, po after 14 to 15 days; assay type: functional
Mus musculus [51] = assay: Effect on liver weight in ddY mouse at 50 mg/kg/day, po after 14 to 15 days; assay type: functional
Mus musculus [52] = assay: Reduction of paranephric fat in ddY mouse at 50 mg/kg/day, po after 14 to 15 days; assay type: functional
Mus musculus [53] = assay: Reduction of paranephric fat in ddY mouse at 1 mg/kg/day, po after 14 to 15 days; assay type: functional
Mus musculus [54] = assay: Effect on total plasma cholesterol in ddY mouse at 10 mg/kg/day, po after 14 to 15 days; assay type: functional
Mus musculus [55] = assay: Effect on plasma triglyceride in ddY mouse at 10 mg/kg/day, po after 14 to 15 days; assay type: functional
Mus musculus [56] = assay: Effect on liver triglyceride in ddY mouse at 10 mg/kg/day, po after 14 to 15 days; assay type: functional
Mus musculus [57] = assay: Effect on free fatty acid in ddY mouse plasma at 10 mg/kg/day, po after 14 to 15 days; assay type: functional

O=C(/C=C/c1ccc(O)cc1)OC[C@H]1O[C@@H](Oc2c(-c3ccc(O)cc3)oc3cc(O)cc(O)c3c2=O)[C@H](O)[C@@H](O)[C@@H]1O [TILIROSIDE]
Activity (Mus musculus [1]): 1500 mg
Activity (Mus musculus [2]): 1490 mg
Activity (Mus musculus [3]): 812 mg
Activity (Mus musculus [4]): 4.7 g/day
Activity (Mus musculus [5]): 350 mg
Activity (Mus musculus [6]): 516 mg and 561 mg
Activity (Mus musculus [7]): 1950 mg
Activity (Mus musculus [8]): 716 mg
Activity (Mus musculus [9]): 132 mg and 266 mg
Activity (Mus musculus [10]): 394 mg and 194 mg
Activity (Mus musculus [11]): 156 mg/dL
Activity (Mus musculus [12]): 1590 mg
Activity (Mus musculus [13]): 93 mg/dL
Activity (Mus musculus [14]): 1.01 mEq/L
Activity (Mus musculus [15]): 1660 mg
Activity (Mus musculus [16]): 63.9 mg/g
Activity (Mus musculus [17]): 108 mg/dL
Activity (Mus musculus [18]): 5 g/day
Activity (Mus musculus [19]): 60.4 mg/g
Activity (Mus musculus [20]): 284 mg
Activity (Mus musculus [21]): 1.17 mEq/L
Activity (Mus musculus [22]): 5.3 g/day and 4.22 g/day
Activity (Mus musculus [23]): 738 mg and 508 mg
Activity (Mus musculus [24]): 1060 mg
Activity (Mus musculus [25]): 1590 mg and 1680 mg
Activity (Mus musculus [26]): 102 mg/dL
Activity (Mus musculus [27]): 1140 mg
Activity (Mus musculus [28]): 662 mg
Activity (Mus musculus [29]): 1.44 mEq/L
Activity (Mus musculus [30]): 5 g/day and 5.4 g/day
Activity (Mus musculus [31]): 144 mg/dL
Activity (Mus musculus [32]): 2050 mg and 1260 mg
Activity (Mus musculus [33]): 745 mg
Activity (Liver): Active
Activity (Mus musculus [34]): 161 mg/dL
Activity (Mus musculus [35]): 5 g/day
Activity (Mus musculus [36]): 811 mg
Activity (Mus musculus [37]): 918 mg and 558 mg
Activity (Mus musculus [38]): 5.7 g/day
Activity (Mus musculus [39]): 1390 mg
Activity (Mus musculus [40]): 407 mg
Activity (Mus musculus [41]): 509 mg
Activity (Mus musculus [42]): 1.5 mEq/L
Activity (Mus musculus [43]): 30.8 mg/g
Activity (Mus musculus [44]): 998 mg and 1450 mg
Activity (Mus musculus [45]): 46.7 mg/g
Activity (Mus musculus [46]): 2240 mg
Activity (Mus musculus [47]): 169 mg/dL
Activity (Mus musculus [48]): 95 mg/dL
Activity (Mus musculus [49]): 119 mg/dL
Activity (Mus musculus [50]): 350 mg and 626 mg
Activity (Mus musculus [51]): 1560 mg
Activity (Mus musculus [52]): 330 mg
Activity (Mus musculus [53]): 141 mg

O=c1c(O)c(-c2ccc(O)cc2)oc2cc(O)cc(O)c12 [KAEMPFEROL]
Activity (Mus musculus [1]): 1520 mg
Activity (Mus musculus [6]): 804 mg
Activity (Mus musculus [9]): 418 mg
Activity (Mus musculus [13]): 110 mg/dL
Activity (Mus musculus [54]): 149 mg/dL
Activity (Mus musculus [55]): 139 mg/dL
Activity (Mus musculus [56]): 60.3 mg/g
Activity (Mus musculus [22]): 4.2 g/day
Activity (Mus musculus [57]): 1.72 mEq/L
Activity (Mus musculus [44]): 2120 mg
Activity (Mus musculus [50]): 896 mg

O=C(O)/C=C/c1ccc(O)cc1 [COUMARIC ACID]
Activity (Mus musculus [1]): 1640 mg
Activity (Mus musculus [6]): 761 mg
Activity (Mus musculus [9]): 307 mg
Activity (Mus musculus [13]): 106 mg/dL
Activity (Mus musculus [54]): 143 mg/dL
Activity (Mus musculus [55]): 162 mg/dL
Activity (Mus musculus [56]): 58.2 mg/g
Activity (Mus musculus [22]): 4.3 g/day
Activity (Mus musculus [57]): 1.67 mEq/L
Activity (Mus musculus [44]): 1920 mg
Activity (Mus musculus [50]): 847 mg

O=c1c(O[C@@H]2O[C@H](CO)[C@@H](O)[C@H](O)[C@H]2O)c(-c2ccc(O)cc2)oc2cc(O)cc(O)c12 [ASTRAGALIN]
Activity (Mus musculus [1]): 1640 mg
Activity (Mus musculus [6]): 680 mg
Activity (Mus musculus [9]): 293 mg
Activity (Mus musculus [13]): 99 mg/dL
Activity (Mus musculus [54]): 119 mg/dL
Activity (Mus musculus [55]): 113 mg/dL
Activity (Mus musculus [56]): 64.8 mg/g
Activity (Mus musculus [22]): 4.34 g/day
Activity (Mus musculus [57]): 1.7 mEq/L
Activity (Mus musculus [44]): 1770 mg
Activity (Mus musculus [50]): 797 mg

Source: ChEMBL document CHEMBL1147949, “Potent anti-obese principle from Rosa canina: structural requirements and mode of action of trans-tiliroside” (2007)
